Experimental data as given in paper PMC7986981 (ACS Pharmacology & Translational Science, 2021).
Where two headings read alike, the source gives them in different places. Where a SMILES comes first, the peptide text is derived from it. The star is where a group is joined. Cbz = O=C(OCc1ccccc1)*

How the values were obtained:
SARS-CoV-2 3CL-Pro = SARS-CoV-2 3CL-Pro (Severe acute respiratory syndrome coronavirus 2, UniProt P0DTD1); assay: biochemical; assay type: biochemical
[1] = oral drugs, no reference given; cited from earlier work
[2] = system: SARS-CoV-2 cytopathic effect in Vero-E6 cells; assay type: cell-based
chymotrypsin = assay type: biochemical; settings: 1 mM DTT
SARS-CoV-2 = assay type: cell-based; settings: read-out: vRNA reduction / viral replication IC50 in Vero-E6 (qPCR)
[3] = system: SARS-CoV-2 CPE in Caco-2 cells; settings: cited from earlier work
deubiquitinating enzymes = settings: read-out: IC50 values against several deubiquitinating enzymes; cited from earlier work
MERS 3CL-Pro = MERS 3CL-Pro (Middle East respiratory syndrome-related coronavirus, UniProt K9N7C7); assay type: biochemical; settings: read-out: IC50 MERS 3CL-Pro
SARS-CoV 3CL-Pro = settings: cited from earlier work
[4] = 20 μM compound, result in words
[5] = read-out: SARS-CoV-2 3CL-Pro IC50
[6] = read-out: HP 3CL-Pro IC50, hit profiling, without DTT
[7] = read-out: SARS-CoV-2 3CL-Pro IC50, without DTT, values given in nM

Sequence of MERS 3CL-Pro (K9N7C7 3248-3553 limits assumed): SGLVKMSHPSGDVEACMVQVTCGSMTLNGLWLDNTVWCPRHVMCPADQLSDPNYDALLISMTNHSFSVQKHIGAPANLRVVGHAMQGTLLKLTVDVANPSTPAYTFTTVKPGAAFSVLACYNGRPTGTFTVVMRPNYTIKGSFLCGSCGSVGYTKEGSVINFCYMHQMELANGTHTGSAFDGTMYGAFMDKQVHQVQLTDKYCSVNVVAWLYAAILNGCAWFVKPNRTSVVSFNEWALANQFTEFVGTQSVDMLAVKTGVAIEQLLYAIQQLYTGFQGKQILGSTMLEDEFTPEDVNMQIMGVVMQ

Oc1cc2c(cc1O)[C@H]1c3ccccc3CN[C@@H]1CC2 (racemic) [Dihydrexidine]
IC50 (SARS-CoV-2 3CL-Pro; HP 3CL-Pro IC50 (μM), hit profiling, without DTT): 1.1 µM

O=c1cc(-c2ccccc2)oc2cc(O)c(O)c(O)c12 [Baicalein]
effect of DTT (0 and 1 mM) on SARS-CoV-2 3CL-Pro inhibition (SARS-CoV-2 3CL-Pro; [4]): loss of inhibitory capacity

NC(CO)C(=O)NNCc1ccc(O)c(O)c1O (stereo not drawn) [Benserazide hdrochloride]
measured acute toxicity in rodents [1]: higher than 5 mg/kg

CC[C@H](CO)Nc1nc(NCc2ccc(-c3ccccn3)cc2)c2ncn(C(C)C)c2n1 [CR8-(R)]
IC50 (SARS-CoV-2 3CL-Pro; read-out: HP 3CL-Pro IC50): 0.8 µM
anti-CPE effect in Vero-E6 phenotypic assay [2]: no anti-CPE effect

CCCCCCNC(=O)n1cc(F)c(=O)[nH]c1=O [Carmofur]
effect of DTT (0 and 1 mM) on SARS-CoV-2 3CL-Pro inhibition (SARS-CoV-2 3CL-Pro; [4]): insensitive to DTT
Chymotrypsin Inhibition [%] +DTT (10 μM) (chymotrypsin): 14%

[H]/N=C(\N/C(=N/[H])NCCCCCCNC(=N)NC(=N)Nc1ccc(Cl)cc1)Nc1ccc(Cl)cc1 [Chlorhexidine]
effect of DTT (0 and 1 mM) on SARS-CoV-2 3CL-Pro inhibition (SARS-CoV-2 3CL-Pro; [4]): not an effective inhibitor

CCN(CC)C(=S)SSC(=S)N(CC)CC [Disulfiram]
effect of DTT (0 and 1 mM) on SARS-CoV-2 3CL-Pro inhibition (SARS-CoV-2 3CL-Pro; [4]): loss of inhibitory capacity

O=c1c2ccccc2[se]n1-c1ccccc1 [Ebselen]
effect of DTT (0 and 1 mM) on SARS-CoV-2 3CL-Pro inhibition (SARS-CoV-2 3CL-Pro): loss of inhibitory capacity

CC(C)C[C@@H](C=O)NC(=O)[C@H](CC(C)C)NC(=O)[C@H](CC(C)C)NC(=O)OCc1ccccc1 [MG-132] (Cbz-Leu-Leu-Leu-aldehyde)
IC50 (SARS-CoV-2): 100 nM
anti-CPE activity against SARS-CoV-2 in Caco-2 cells (words) [3]: active

O=c1c2cc(F)ccc2sn1-c1cc(S(=O)(=O)N2CCOCC2)ccc1N1CCOCC1 [ML345]
IC50 (SARS-CoV-2 3CL-Pro; [5]): 0.02 µM

Cc1ccc(C)c(-n2sc3cc(F)ccc3c2=O)c1 [MLS0315771]
IC50 (SARS-CoV-2 3CL-Pro; [5]): 0.02 µM

O=c1c(O)c(-c2cc(O)c(O)c(O)c2)oc2cc(O)cc(O)c12 [Myricetin]
anti-CPE effect in Vero-E6 phenotypic assay [2]: not reflected in anti-CPE

Oc1cc(CNC(=S)/C=C/c2cc(O)c(O)c(Br)c2)cc(O)c1O [NT-157]
IC50 (SARS-CoV-2 3CL-Pro; read-out: SARS-CoV-2 3CL-Pro IC50 (unit inferred)): 0.5 µM

Cc1ccc(-n2sc3ccccc3c2=O)cc1 [PBIT]
IC50 (SARS-CoV-2 3CL-Pro; [5]): 0.02 µM

O=c1c2ccccc2sn1-c1ccccc1 [PD08290]
IC50 (SARS-CoV-2 3CL-Pro; [5]): 0.02 µM

N#CSc1cc(SC#N)c(N)nc1N [PR-619]
IC50 (SARS-CoV-2 3CL-Pro; [6]): 0.4 µM
IC50 (deubiquitinating enzymes): 2000 to 10000 nM
anti-CPE effect in Vero-E6 phenotypic assay [2]: inactive
anti-CPE activity against SARS-CoV-2 in Caco-2 cells (words) [3]: inactive
IC50 (MERS 3CL-Pro): 2300 nM

CCC(C)SSc1ncc[nH]1 (stereo not drawn) [PX-12]
IC50 (MERS 3CL-Pro): 7600 nM

Cn1sc(=O)n(Cc2ccccc2)c1=O [TDZD-8]
effect of DTT (0 and 1 mM) on SARS-CoV-2 3CL-Pro inhibition (SARS-CoV-2 3CL-Pro; [4]): insensitive to DTT

Nc1nc2c(ncn2[C@@H]2O[C@H](CO)[C@@H](O)[C@H]2O)c(=S)[nH]1 [Thioguanosine]
anti-CPE activity against SARS-CoV-2 in Caco-2 cells (words) [3]: anti-SARS-CoV-2 CPE effects
anti-CPE activity against SARS-CoV-2 in Caco-2 cells (words) ([3]; listed as thioguanosine): active

O=c1sn(-c2cccc3ccccc23)c(=O)n1Cc1ccccc1 [Tideglusib]
effect of DTT (0 and 1 mM) on SARS-CoV-2 3CL-Pro inhibition (SARS-CoV-2 3CL-Pro; [4]): loss of inhibitory capacity

COC(=O)CC[C@H](NC(=O)[C@H](CC(=O)OC)NC(=O)OCc1ccccc1)C(=O)N[C@H](C(=O)N[C@@H](CC(=O)OC)C(=O)CF)C(C)C [Z-DEVD-FMK]
fold higher potency than previously reported (SARS-CoV-2 3CL-Pro; own IC50 versus literature reports (Z-DEVD-FMK: ref 13)): 600 fold
IC50 (SARS-CoV-2 3CL-Pro; [7]): 0.01 µM
anti-CPE effect in Vero-E6 phenotypic assay [2]: did not influence CPE

CN1CCc2cccc3c2[C@H]1Cc1ccc(O)c(O)c1-3 [apomorphine]
measured acute toxicity in rodents [1]: higher than 5 mg/kg

CC(C)(C)NC(=O)N[C@H](C(=O)N1C[C@H]2[C@@H]([C@H]1C(=O)NC(CC1CCC1)C(=O)C(N)=O)C2(C)C)C(C)(C)C (stereo partly drawn) [boceprevir]
inhibition at 20 µM (SARS-CoV-2 3CL-Pro; read-out: HC 3CL-Pro Inhibition [%] (20 μM), hit confirmation, triplicate, 20 μM compound): < 50%

CCCC[C@@H](C=O)NC(=O)[C@H](CC(C)C)NC(=O)OCc1ccccc1 [calpeptin]
effect of DTT (0 and 1 mM) on SARS-CoV-2 3CL-Pro inhibition (SARS-CoV-2 3CL-Pro; [4]): retained its inhibitory effect independent of DTT
effect of preincubation time (15, 30, 60 min) on inhibition (SARS-CoV-2 3CL-Pro; 25 °C, 20 μM, result in words): unchanged

O=C(O[C@@H]1Cc2c(O)cc(O)cc2O[C@@H]1c1cc(O)c(O)c(O)c1)c1cc(O)c(O)c(O)c1 [epigallocatechin gallate, (-)-Epigallocatechin gallate]
effect of DTT (0 and 1 mM) on SARS-CoV-2 3CL-Pro inhibition (SARS-CoV-2 3CL-Pro; [4]): did not show DTT dependence

CC(Cc1ccc(O)c(O)c1)C(C)Cc1ccc(O)c(O)c1 (stereo not drawn) [nordihydroguaiaretic acid]
IC50 (SARS-CoV-2 3CL-Pro; [6]): 2.59 µM

CC(=O)[O][Hg][c]1ccccc1 [phenylmercuric acetate]
IC50 (SARS-CoV-2 3CL-Pro; [7]): 0.01 µM

COCCCOc1ccnc(C[S+]([O-])c2nc3ccccc3[nH]2)c1C (stereo not drawn) [rabeprazole]
measured acute toxicity in rodents [1]: higher than 5 mg/kg

Oc1c(I)cc(I)c(O)c1I [riodoxol]
measured acute toxicity in rodents [1]: higher than 5 mg/kg

CCOC(=O)/C=C/[C@H](C[C@@H]1CCNC1=O)NC(=O)[C@@H](CC(=O)[C@@H](NC(=O)c1cc(C)on1)C(C)C)Cc1ccc(F)cc1 [rupintrivir]
activity against SARS-CoV 3CL-Pro (SARS-CoV 3CL-Pro): lacks activity

zinc pyrithione
IC50 (SARS-CoV 3CL-Pro; read-out: SARS-CoV 3CL-Pro IC50): 800 nM
effect of DTT (0 and 1 mM) on SARS-CoV-2 3CL-Pro inhibition (SARS-CoV-2 3CL-Pro): lost its inhibitory effects in the presence of DTT
effect of preincubation time (15, 30, 60 min) on inhibition (SARS-CoV-2 3CL-Pro): increased with preincubation time
fold more potent after preincubation at 37 °C versus 25 °C (SARS-CoV-2 3CL-Pro): 3 fold
